The results in this text go back to patent EP3782997A1, “FUSED PYRIMIDINE COMPOUNDS AND PHARMACEUTICAL COMPOSITIONS THEREOF FOR THE TREATMENT OF FIBROTIC DISEASES” (Galapagos N.V., priority 2019, dated 2021).

As a reminder, the IC50 is the concentration that inhibits the measured activity by half. The low end stands for greater potency in that assay, the high end for weaker potency in that assay.

The assay has as its target hENPP2 (Homo sapiens, UniProt Q13822). In words: Human ENPP2 (hENPP2) biochemical assay using LPC as substrate. The following applies: 150 µM LPC (palmitoyl 16:0), 37°C for 30 min. The procedure:
The principle of the assay conswasts in quantifying the released choline with an enzymatic method using choline oxidase and peroxidase. Choline oxydation by choline oxydase releases betaine and peroxide. The latter was quantified in presence of HRP that converts the peroxide detection agent TOOS (CAS# 82692-93-1) and 4-aminoantipyrine into quinoneimine dye. The appearance of quinoneimine dye was measured spectrophotometrically at 555 nm and was proportional to the amount of choline released by ENPP2. Inhibition of ENPP2 results in a decrease of the signal.
Compound IC50 values were determined in a hENPP2 (UniProtKB/SwwassProt Sequence ref Q13822) biochemical assay using LPC as substrate.
5 µL of a dilution series of compound, starting from 50 µM highest concentration, 1/3 dilution, was added to the wells. hENPP2 was used at a final concentration of 1 µg/mL or 3 µg/mL (it will be appreciated by the skilled person that the potency read out was independent of the enzyme concentration). The enzyme was diluted in 50 mM Trwas-HCl pH 8.5, 500 mM NaCl, 5 mM KCl, 10 mM CaCl2, 0.1% fatty acid free BSA in a total volume of 10 µL. The reaction was started by the addition of 10 µL of 150 µM LPC (palmitoyl 16:0; Avanti Polar Lipids, Inc., Cat# 855675) diluted in the same buffer as described above and the mixture was incubated at 37°C for 30 min. The reaction was terminated and choline quantified by the addition of a 25 µL of a mixture containing 0.6 U/mL of choline oxidase, 0.6 U/mL of peroxydase, 1.8 mM TOOS, 1.2 mM amino-antipyrine, 20 mM EGTA (stop-developer solution) diluted in the buffer described above. […] was read on an Envision plate reader (PerkinElmer, Inc.) after an incubation of 30 min at room temperature (excitation 555 nm).
`Cc1cc(C)cc(Nc2ncc3c(n2)CN(C2CCN(C(=O)c4ccc5[nH]nnc5c4)C(C)(C)C2)C3)c1` (centres unmarked) [Cpd 100, 1H-benzotriazol-5-yl-[4-[2-(3,5-dimethylanilino)-5,7-dihydropyrrolo[3,4-d]pyrimidin-6-yl]-2,2-dimethyl-1-piperidyl]methanone]: the IC50 is 0.01 to 100 nM.

As to `Cc1cc(C)cc(Nc2ncc3c(n2)CN(C2CN(C(=O)c4ccc5[nH]nnc5c4)CC2(F)F)C3)c1` (centres unmarked) [Cpd 101, 1H-benzotriazol-5-yl-[4-[2-(3,5-dimethylanilino)-5,7-dihydropyrrolo[3,4-d]pyrimidin-6-yl]-3,3-difluoro-pyrrolidin-1-yl]methanone], the IC50 was in the range of 100 to 500 nM.

Consider `COC(=O)[C@@H]1C[C@H](N2Cc3cnc(Nc4cc(C)cc(C)c4)nc3C2)CCN1C(=O)c1ccc2[nH]nnc2c1` [Cpd 104, methyl (2S,4R)-1-(1H-benzotriazole-5-carbonyl)-4-[2-(3,5-dimethylanilino)-5,7-dihydropyrrolo[3,4-d]pyrimidin-6-yl]pipe ridine-2-carboxylate], for which the IC50 was in the range of 0.01 to 100 nM.

For the compound `Cc1cc(C)cc(Nc2ncc3c(n2)CN(C2CCN(C(=O)c4ccc5[nH]cnc5c4)CC2)C3)c1` [Cpd 108, 1H-benzimidazol-5-yl-[4-[2-(3,5-dimethylanilino)-5,7-dihydropyrrolo[3,4-d]pyrimidin-6-yl]-1-piperidyl]methanone], the IC50 was in the range of 500 to 1000 nM.

As to `Cc1cc(C)cc(Nc2ncc3c(n2)CN(C2CCN(C(=O)c4cc5nn[nH]c5cc4F)C(C)(C)C2)C3)c1` (centres unmarked) [Cpd 117, [4-[2-(3,5-dimethylanilino)-5,7-dihydropyrrolo[3,4-d]pyrimidin-6-yl]-2,2-dimethyl-1-piperidyl]-(6-fluoro-1H-benzotriazol-5-yl)methanone], the IC50 fell in the range of 0.01 to 100 nM.

With `Cc1cc(C)cc(Nc2ncc3c(n2)CN(C2CCN(C(=O)c4ccc5oc(=O)[nH]c5c4)CC2)C3)c1` [Cpd 118, 5-[4-[2-(3,5-dimethylanilino)-5,7-dihydropyrrolo[3,4-d]pyrimidin-6-yl]piperidine-1-carbonyl]-3H-1,3-benzoxazol-2-one], the IC50 was over 1000 nM.

As to `Cc1cc(C)cc(Nc2ncc3c(n2)CN([C@H]2CCN(C(=O)c4ccc(S(N)(=O)=O)cc4)[C@@H](C)C2)C3)c1` [Cpd 124, 4-[(2S,4S)-4-[2-(3,5-dimethylanilino)-5,7-dihydropyrrolo[3,4-d]pyrimidin-6-yl]-2-methyl-piperidine-1-carbonyl]benzenesulfonamide], the IC50 was over 1000 nM.

For the compound `COc1cc(C)cc(Nc2ncc3c(n2)CN([C@@H]2CCN(C(=O)c4ccc5[nH]nnc5c4)[C@H](C)C2)C3)c1` [Cpd 125, 1H-benzotriazol-5-yl-[(2R,4R)-4-[2-(3-methoxy-5-methyl-anilino)-5,7-dihydropyrrolo[3,4-d]pyrimidin-6-yl]-2-methyl-1-piperidyl]methanone], the IC50 was 0.01 to 100 nM.

In the case of `Cc1cc(C)cc(Nc2ncc3c(n2)CN(C2(C)CCN(C(=O)c4ccc5[nH]nnc5c4)CC2)C3)c1` [Cpd 130, 1H-benzotriazol-5-yl-[4-[2-(3,5-dimethylanilino)-5,7-dihydropyrrolo[3,4-d]pyrimidin-6-yl]-4-methyl-1-piperidyl]methanone], the IC50 lay within 0.01 to 100 nM.

The compound `Cc1cc(C)cc(Nc2ncc3c(n2)CN([C@H]2CCN(C(=O)c4ccc(S(=O)(=O)NC(=O)C(C)C)cc4)[C@@H](C)C2)C3)c1` [Cpd 131, N-[4-[(2S,4S)-4-[2-(3,5-dimethylanilino)-5,7-dihydropyrrolo[3,4-d]pyrimidin-6-yl]-2-methyl-piperidine-1-carbonyl]phenyl]sulfonyl-2-methyl-propanamide] showed an IC50 of over 1000 nM.

`Cc1cc(C)cc(Nc2ncc3c(n2)CN([C@H]2CCN(C(=O)c4ccc(C(=O)O)cc4)[C@@H](C)C2)C3)c1` [Cpd 132, 4-[(2S,4S)-4-[2-(3,5-dimethylanilino)-5,7-dihydropyrrolo[3,4-d]pyrimidin-6-yl]-2-methyl-piperidine-1-carbonyl]benzoic acid] returned an IC50 of over 1000 nM.

For the compound `Cc1cc(C)cc(Nc2ncc3c(n2)CN([C@H]2CCN(C(=O)c4ccc(C(=O)NS(C)(=O)=O)cc4)[C@@H](C)C2)C3)c1` [Cpd 133, 4-[(2S,4S)-4-[2-(3,5-dimethylanilino)-5,7-dihydropyrrolo[3,4-d]pyrimidin-6-yl]-2-methyl-piperidine-1-carbonyl]-N-methylsulfonylbenzamide], the IC50 was over 1000 nM.

As for `Cc1cc(C)cc(Nc2ncc3c(n2)CCN(C2CCN(C(=O)c4ccc5[nH]nnc5c4)[C@@H](C)C2)CC3)c1` (stereo partly drawn) [Cpd 142, 1H-benzotriazol-5-yl-[(2S)-4-[2-(3,5-dimethylanilino)-5,6,8,9-tetrahydropyrimido[4,5-d]azepin-7-yl]-2-methyl-1-piperidyl]methanone], the half-inhibitory concentration (IC50) lay in the range of 100 to 500 nM.

Compound `Cc1cc(C)cc(Nc2ncc3c(n2)CN([C@@H]2CCN(C(=O)c4cccc(C(=O)O)c4)[C@H](C)C2)C3)c1` [Cpd 146, 3-[(2R,4R)-4-[2-(3,5-dimethylanilino)-5,7-dihydropyrrolo[3,4-d]pyrimidin-6-yl]-2-methyl-piperidine-1-carbonyl]benzoic acid] registered an IC50 of over 1000 nM.

In turn, `Cc1cc(C)cc(Nc2ncc3c(n2)CN([C@@H]2CCN(C(=O)c4ccc(-c5nnn[nH]5)cc4)[C@H](C)C2)C3)c1` [Cpd 153, [(2R,4R)-4-[2-(3,5-dimethylanilino)-5,7-dihydropyrrolo[3,4-d]pyrimidin-6-yl]-2-methyl-1-piperidyl]-[4-(1H-tetrazol-5-yl)phenyl]methanone] registered an IC50 of over 1000 nM.

On to `Cc1cc(C)cc(Nc2ncc3c(n2)CCN(C2(C)CCN(C(=O)c4ccc5[nH]nnc5c4)CC2)C3)c1` [Cpd 158, 1H-benzotriazol-5-yl-[4-[2-(3,5-dimethylanilino)-7,8-dihydro-5H-pyrido[4,3-d]pyrimidin-6-yl]-4-methyl-1-piperidyl]methanone], for which the IC50 fell in the range of 0.01 to 100 nM.

`C[C@@H]1C[C@H](N2Cc3cnc(Nc4ccc(C#N)cc4)nc3C2)CCN1C(=O)c1ccc2[nH]nnc2c1` [Cpd 160, 4-[[6-[(2R,4R)-1-(1H-benzotriazole-5-carbonyl)-2-methyl-4-piperidyl]-5,7-dihydropyrrolo[3,4-d]pyrimidin-2-yl]amino]benzonitrile] returned an IC50 of 0.01 to 100 nM.

Consider `Cc1cc(C)cc(Nc2ncc3c(n2)CCN(C2CN(C(=O)c4ccc5[nH]nnc5c4)C2)C3)c1` [compound 2, 1H-benzotriazol-5-yl-[3-[2-(3,5-dimethylanilino)-7,8-dihydro-5H-pyrido[4,3-d]pyrimidin-6-yl]azetidin-1-yl]methanone], for which the IC50 lay in the range of 100 to 500 nM.

Consider `Cc1cc(C)cc(Nc2ncc3c(n2)CCN(C2CCN(C(=O)c4ccc5[nH]c(=O)oc5c4)C2)C3)c1` (centres unmarked) [compound 4, 6-[3-[2-(3,5-dimethylanilino)-7,8-dihydro-5H-pyrido[4,3-d]pyrimidin-6-yl]pyrrolidine-1-carbonyl]-3H-1,3-benzoxazol-2-one], for which the IC50 fell in the range of 0.01 to 100 nM.

In the case of `Cc1cc(C)cc(Nc2ncc3c(n2)CCN(C2CCN(C(=O)c4ccc5[nH]nnc5c4)C2)C3)c1` (centres unmarked) [compound 5, 1H-benzotriazol-5-yl-[3-[2-(3,5-dimethylanilino)-7,8-dihydro-5H-pyrido[4,3-d]pyrimidin-6-yl]pyrrolidin-1-yl]methanone], the IC50 lay within 100 to 500 nM.
